The numbers were not newly measured in patent US6689338B2, “Bioconjugates of nanoparticles as radiopharmaceuticals” (The Board of Regents for Oklahoma State University, priority 2000, dated 2004), which cites them from elsewhere.

This series relates to tumor. The conditions noted are these: in vivo.

Regarding `O=C([O-])CN(CCN(CC(=O)[O-])CC(=O)[O-])CCN(CC(=O)[O-])CC(=O)[O-].[111In+3].[H+].[H+]`, the liver background result was “high liver background”.
